System: 997726-040-R-J2-PDC tumor spheroids, viability
Test: Anticancer human tumor 997726-040-R-J2-PDC patient-derived squamous cell lung carcinoma cell line growth inhibition [PI3K]
Conditions: spheroids with HUVEC and MSC; for viability, T/C: stronger effect = lower value
From the text: Combinatorial screen of targeted agents with the PI3K inhibitors inavolisib, alpelisib, duvelisib, and copanlisib in multi-cell type tumor spheroids
A high-throughput screen of multi-cell type tumor spheroids was designed to identify active combinations of targeted small molecules and PI3K pathway inhibitors. Complex spheroids include a stromal component modeled by human endothelial cells (HUVEC) and fibroblasts modeled by human mesenchymal stem cells (MSCs). The concentration ranges selected for each drug and investigational agent were based upon clinically achievable concentrations if the clinical Cmax of the agent was known.
Compounds. The drugs and investigational agents: inavolisib (NSC800729), alpelisib (NSC765974), duvelisib (NSC772469), copanlisib (NSC816437), ipatasertib (NSC767898), afuresertib (NSC778305), talazoparib (NSC767125), sapanisertib (NSC764658), selumetinib (NSC741078), tovorafenib (DAY101, NSC766906), vemurafenib (NSC761431), ravoxertinib (NSC781343), sotorasib (NSC818433), MRTX1133 (NSC 836407), abemaciclib (NSC 768073), palbociclib (NSC758247), venetoclax (NSC 766270), SY5609 (NSC837396), enzalutamide (NSC755605), and darolutamide (NSC825331), were obtained from the National Cancer Institute (NCI) Developmental Therapeutics Program Chemical Repository. The FDA-approved anticancer drug set is available from the NCI Developmental Therapeutics Program. […] The stock solutions were prepared in dimethyl sulfoxide (DMSO, Sigma-Aldrich, St. Louis, MO, cat. D2650) at 800-fold the tested concentration and stored at -70 degrees C prior to their use. All drugs and investigational agents were tested over a range starting from a high concentration at or near the clinical Cmax and decreasing in half-log increments. If the clinical Cmax for an agent had not been determined, the highest concentration tested was 10 microM.
Cell Culture. All cells were maintained in an incubator at 37 degrees C and 5% CO2 with 95% humidity. The PDC lines were cultured according to standard operating procedures established by the NCI PDMR (https://pdmr.cancer.gov/sops/default.htm). All PDCs were thawed and cultured in Matrigel-coated flasks prepared with a working solution of 1X Ham's F-12 nutrient mix, without supplementation (Invitrogen, Waltham, MA, cat. 11765054), 100 U/mL penicillin-streptomycin (Invitrogen, cat. 15140122), and 2.5% Matrigel (Corning Inc., Corning, NY, cat. 354248) for the first three passages. The 354836-022-R-J1-PDC, 475296-252-R-J1-PDC, and 997726-040-R-J2-PDC lines were cultured in 6A media, which includes advanced DMEM/F-12 (Thermo Fisher Scientific, cat. 12634028), 10 mM HEPES (Thermo Fisher Scientific, cat. 15630080), 1X GlutaMAX supplement (Thermo Fisher Scientific, cat. 35050061), 0.1 mg/mL primocin (InvivoGen, San Diego, CA, cat. ant-pm-2), 10% defined fetal bovine serum, heat inactivated (HyClone Laboratories Inc., Logan, UT, cat. SH30070.03HI), 50% L-WRN conditioned media (ATCC, cat. CRL-3276), 1.25 mM N-Acetyl-L-cysteine (Sigma-Aldrich, cat. A9165), 10 mM nicotinamide (Sigma-Aldrich, cat. N0636), 1X B-27 supplement (Thermo Fisher Scientific, cat. 17504044), 1X N-2 supplement (Thermo Fisher Scientific, cat. 17502048), and 10 microM Y-27632 dihydrochloride (Tocris Bioscience, Bristol, United Kingdom, cat. 1254). The 624824-186-R-J2-PDC line was cultured in 6C/Colon 1B media, which includes all 6A media components plus 50 ng/mL human EGF recombinant protein (Thermo Fisher Scientific, cat. PHG0311). […]
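Further: spheroids exposed to compounds for seven days before readout.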

Cn1cnc2c(F)c(Nc3ccc(Br)cc3Cl)c(C(=O)NOCCO)cc21 + COc1c(OCCCN2CCOCC2)ccc2c3n(c(=NC(=O)c4cnc(N)nc4)nc12)CCN3 was tested, and the IC50 (curve of first compound, second compound 0.00316 µM) was 46.1 nM, the IC50 (curve of first compound, second compound 0.01 µM) was < 9.49 nM and the IC50 (curve of first compound, second compound 0.0316 µM) was < 9.49 nM. The IC50 (curve of first compound, second compound 0.1 µM) was < 9.49 nM, the IC50 (curve of first compound, second compound 0.316 µM) was < 9.49 nM and the IC50 (curve of first compound, second compound 1 µM) was < 9.49 nM. It also gave a viability, T/C (second compound 0.00316 µM, first compound 0.00949 µM) of 60.5%, a viability, T/C (second compound 0.00316 µM, first compound 0.03 µM) of 55.1% and a viability, T/C (second compound 0.00316 µM, first compound 0.0949 µM) of 39.2%. It also gave a viability, T/C (second compound 0.00316 µM, first compound 0.3 µM) of 46.1%, a viability, T/C (second compound 0.00316 µM, first compound 0.949 µM) of 38% and a viability, T/C (second compound 0.00316 µM, first compound 3 µM) of 33.2%. It also gave a viability, T/C (second compound 0.01 µM, first compound 0.00949 µM) of 44.3%, a viability, T/C (second compound 0.01 µM, first compound 0.03 µM) of 43% and a viability, T/C (second compound 0.01 µM, first compound 0.0949 µM) of 39.1%. It also gave a viability, T/C (second compound 0.01 µM, first compound 0.3 µM) of 36.5%, a viability, T/C (second compound 0.01 µM, first compound 0.949 µM) of 28.6% and a viability, T/C (second compound 0.01 µM, first compound 3 µM) of 27.5%. The viability, T/C (second compound 0.0316 µM, first compound 0.00949 µM) was 36.6%, the viability, T/C (second compound 0.0316 µM, first compound 0.03 µM) was 33.4% and the viability, T/C (second compound 0.0316 µM, first compound 0.0949 µM) was 26.2%. For the same compound, the viability, T/C (second compound 0.0316 µM, first compound 0.3 µM) was 24.6%, the viability, T/C (second compound 0.0316 µM, first compound 0.949 µM) was 24.1% and the viability, T/C (second compound 0.0316 µM, first compound 3 µM) was 16.7%. It also gave a viability, T/C (second compound 0.1 µM, first compound 0.00949 µM) of 20.8%, a viability, T/C (second compound 0.1 µM, first compound 0.03 µM) of 20.8% and a viability, T/C (second compound 0.1 µM, first compound 0.0949 µM) of 15.6%. For the same compound, the viability, T/C (second compound 0.1 µM, first compound 0.3 µM) was 15.2%, the viability, T/C (second compound 0.1 µM, first compound 0.949 µM) was 14.7% and the viability, T/C (second compound 0.1 µM, first compound 3 µM) was 7.1%. The viability, T/C (second compound 0.316 µM, first compound 0.00949 µM) was 5.7%, the viability, T/C (second compound 0.316 µM, first compound 0.03 µM) was 5.13% and the viability, T/C (second compound 0.316 µM, first compound 0.0949 µM) was 2.49%. For the same compound, the viability, T/C (second compound 0.316 µM, first compound 0.3 µM) was 2.68%, the viability, T/C (second compound 0.316 µM, first compound 0.949 µM) was 1.51% and the viability, T/C (second compound 0.316 µM, first compound 3 µM) was 0.35%. For the same compound, the viability, T/C (second compound 1 µM, first compound 0.00949 µM) was 2.27%, the viability, T/C (second compound 1 µM, first compound 0.03 µM) was 1.05% and the viability, T/C (second compound 1 µM, first compound 0.0949 µM) was 0.66%. The viability, T/C (second compound 1 µM, first compound 0.3 µM) was 0.55%, the viability, T/C (second compound 1 µM, first compound 0.949 µM) was 0.39% and the viability, T/C (second compound 1 µM, first compound 3 µM) was 0.27%.

For CNC(=O)c1ccc(N2C(=S)N(c3ccc(C#N)c(C(F)(F)F)c3)C(=O)C2(C)C)cc1F, the viability, T/C (compound 0.0316 µM) was 109% [middle of 4 runs], the viability, T/C (compound 0.1 µM) was 95.3% [middle of 4 runs] and the viability, T/C (compound 0.316 µM) was 97% [middle of 4 runs]. For the same compound, the viability, T/C (compound 1 µM) was 93.3% [middle of 4 runs], the viability, T/C (compound 3.16 µM) was 108% [middle of 4 runs] and the viability, T/C (compound 10 µM) was 95.8% [middle of 4 runs]. The IC50 (curve of compound) was > 10000 nM.

In the case of Cn1cnc2c(F)c(Nc3ccc(Br)cc3Cl)c(C(=O)NOCCO)cc21, the viability, T/C (compound 0.00949 µM) is reported as 77.2% [middle of 4 runs], the viability, T/C (compound 0.03 µM) is reported as 70.8% [middle of 4 runs] and the viability, T/C (compound 0.0949 µM) is reported as 58.2% [middle of 4 runs]. The viability, T/C (compound 0.3 µM) was 48.6% [middle of 4 runs], the viability, T/C (compound 0.949 µM) was 48.3% [middle of 4 runs] and the viability, T/C (compound 3 µM) was 40.8% [middle of 4 runs].

For C[C@@H](NC(=O)c1ncnc(N)c1Cl)c1ncc(C(=O)Nc2cc(C(F)(F)F)c(Cl)cn2)s1, the viability, T/C (compound 0.1 µM) was 125% [middle of 4 runs], the viability, T/C (compound 0.316 µM) was 117% [middle of 4 runs] and the viability, T/C (compound 1 µM) was 110% [middle of 4 runs]. The viability, T/C (compound 3.16 µM) was 105% [middle of 4 runs], the viability, T/C (compound 10 µM) was 73.3% [middle of 4 runs] and the IC50 (curve of compound) was > 10000 nM.
